Test results from EP0118571A1, “Inhibitor of aldose reductase” (Kaken Pharmaceutical Co., Ltd., priority 1983, dated 1984).
Read-outs that look alike come from different tables or passages of the source.

Key:
rat lens AR (RLAR) = target: T1, rat lens AR (RLAR) (Rattus norvegicus, UniProt P07943); assay: Aldose reductase (AR) activity assay, rat lens AR (NADPH oxidation, DL-glyceraldehyde substrate); assay type: biochemical; settings: for inhibition at 10 µM: inhibitor 10^-5M, read-out: Inhibition against enzyme activity (%) RLAR 10^-5M; for inhibition at 10 µM / inhibition at 1 µM / inhibition at 0.1 µM: 30°C, pH 6.2, 1 % propylene glycol; for inhibition at 1 µM: inhibitor 10^-6M, read-out: Inhibition against enzyme activity (%) RLAR 10^-6M; for inhibition at 0.1 µM: inhibitor 10^-7M, read-out: Inhibition against enzyme activity (%) RLAR 10^-7M
T1 construct: BLAR and RLAR were purified according to the method of Inagaki et al; from tissue; host or cells: rat (Wistar) lens
Experimental: (§1) The inhibitory activitiy against AR of LARI was determined according to the following method. As reference examples, there were employed quercitrin and two flavone derivatives having a relatively similar structure to that of LARI, i.e. 6,4'-dihydroxy-5,7,8,3'-tetramethoxyflavone and 5,4'-dihydroxy-6,7,8,3'-tetramethoxyflavone (hereinafter referred to as "Ref-1" and "Ref-2", respectively).
(§2) Rat lenses were removed from eyes of rats of the Wistar strain weighing 200 to 250 g. Bovine eyes were obtained from a local abattoir, and the lenses were removed and frozen until needed.
(§3) All compounds to be subjected to examination were dissolved in propylene glycol being a useful solvent of low toxicity for some water-insoluble drugs. A 10^-3M solution was prepared and diluted to the desired concentration with propylene glycol. To the reaction mixture were added aliquots of the diluted solution to yield concentrations of 10^-8M to 10^-5M and a propylene glycol concentration of 1 %.
(§4) AR assays were conducted according to the procedure of Hayman and Kinoshita (J. Biol. Chem. 240, p. 877 (1965)), except for the addition of ammonium sulfate instead of lithium sulfate to the reaction mixture. Assays were performed at 30°C. in 0.1 M sodium phosphate buffer (pH 6.2) containing 0.4 M ammonium sulfate, 10 mM DL-glyceraldehyde and 0.16 mM NADPH and the enzyme (0.010 to 0.016 unit) in a total volume of 1.0 ml. The effects of inhibitors on the enzyme activity were determined in the reaction mixture containing 10 µl. of each inhibitor solution at the desired concentration. The blank reference to correct for non-specific reduction of NADPH contained all of the above compounds except the above DL-glyceraldehyde. The reaction was initiated by the addition of the above DL-glyceraldehyde, and the rate of NADPH oxidation was followed by recording the decrease in absorbance at 340 nm. on a Gilford model 250 spectrophotometer.
(§5) BLAR and RLAR were purified according to the method of Inagaki et al (Archs. Biochem. Biophys. 216, p. 337 (1982)). Briefly, a 40 to 75 % ammonium sulfate fraction was subjected to chromatography on DEAE-Sephacel, followed by two column chromatographic steps, i.e. affinity chromatography using Matrex gel red A and gel filtration on Sephadex G-75.
(§6) The concentration of inhibitor needed to elicit a 50 % inhibition (IC50) was determined according to the method of Kador et al (Docum. Ophthal. Proc. Series 18, p. 117 (1979)).

bovine lens AR (BLAR) = target: T2, bovine lens AR (BLAR) (Bos taurus, UniProt P16116); assay: Aldose reductase (AR) activity assay, bovine lens AR (NADPH oxidation, DL-glyceraldehyde substrate); assay type: biochemical; settings: for inhibition at 10 µM: inhibitor 10^-5M, read-out: Inhibition against enzyme activity (%) BLAR 10^-5M; for inhibition at 10 µM / inhibition at 1 µM / inhibition at 0.1 µM: 30°C, pH 6.2, 1 % propylene glycol; for inhibition at 1 µM: inhibitor 10^-6M, read-out: Inhibition against enzyme activity (%) BLAR 10^-6M; for inhibition at 0.1 µM: inhibitor 10^-7M, read-out: Inhibition against enzyme activity (%) BLAR 10^-7M
T2 construct: BLAR and RLAR were purified according to the method of Inagaki et al; from tissue; host or cells: bovine lens
Experimental: as §1, §2, §3, §4, §5, §6

[1] = purified RLAR, Table 2, read-out: IC50 (M) X 10^6 RLAR
[2] = read-out: IC50 (concentration of inhibitor needed to elicit 50 % inhibition) RLAR
[3] = read-out: IC50 (concentration of inhibitor needed to elicit 50 % inhibition) BLAR

| Structure (SMILES) | inhibition at 10 µM (rat lens AR (RLAR)) [%] | inhibition at 1 µM (rat lens AR (RLAR)) [%] | inhibition at 0.1 µM (rat lens AR (RLAR)) [%] | IC50 (rat lens AR (RLAR); [1]) [M] | IC50 (rat lens AR (RLAR); [2]) [M] | inhibitory activity against AR, times as potent as that of quercitrin (rat lens AR (RLAR); relative to quercitrin, AR in general (RLAR and BLAR not distinguished)) | inhibition at 10 µM (bovine lens AR (BLAR)) [%] | inhibition at 1 µM (bovine lens AR (BLAR)) [%] | inhibition at 0.1 µM (bovine lens AR (BLAR)) [%] | IC50 (bovine lens AR (BLAR); [3]) [M] | IC50 (bovine lens AR (BLAR); purified BLAR, Table 2, read-out: IC50 (M) X 10^6 BLAR) [M] |
| --- | --- | --- | --- | --- | --- | --- | --- | --- | --- | --- | --- |
| COc1c(OC)c(OC)c2c(=O)cc(-c3ccc(O)c(O)c3)oc2c1OC [LARI, 3',4'-dihydroxy-5,6,7,8-tetramethoxyflavone] | 97 | 93 | 78 | 3e-08 | 3.6e-08 | about 17 times | 100 | 90 | 37 | 1.8e-07 | – |
| COc1cc(-c2cc(=O)c3c(OC)c(O)c(OC)c(OC)c3o2)ccc1O [Ref-1, 6,4'-dihydroxy-5,7,8,3'-tetramethoxyflavone] | 58 | 22 | 6 | – | – | – | 63 | 19 | 0 | – | – |
| COc1cc(-c2cc(=O)c3c(O)c(OC)c(OC)c(OC)c3o2)ccc1O [Ref-2, 5,4'-dihydroxy-6,7,8,3'-tetramethoxyflavone] | 40 | 15 | 0 | – | – | – | 56 | 19 | 0 | – | – |
| C[C@@H]1O[C@@H](Oc2c(-c3ccc(O)c(O)c3)oc3cc(O)cc(O)c3c2=O)[C@H](O)[C@H](O)[C@H]1O [quercitrin] | 84 | 56 | 38 | 4.9e-07 | 4.9e-07 | – | 66 | 32 | 0 | 3.3e-06 | 3.3e-06 |
